{"source": "patent US6951647B2", "about": "“T cell binding ligand peptides and method of inducing a cellular immune response” (Cel-Sci Corporation, priority 2001, dated 2005)", "key": {"[1]": {"system": "modified HGP-30", "assay": "ELISA antibody screening of sera of immunized mice on modified HGP-30", "format": "in vivo", "details": "for ELISA test antigen Modified HGP-30: day 42 test bleeding", "method": "Mice in groups (5-10 animals per group as designated) are immunized with the LEAPS constructs (25 μg/dose) of SEQ ID NO's:37, 38 and 39, in 0.2 mL emulsified 1:1 with adjuvant (Seppic's ISA-51 or Corixa's microfluidized MPL S/E) on days 0 and 14. Mice are evaluated by Delayed Type of Hypersensitivity (DTH) by inoculation on day 26 with 20 μl of a solution of saline or mH (SEQ ID NO:6) (25 μg in saline) in the left or right ear respectively. The DTH response is determined by measurement of the ear thickness 48 hours later and expressed as increase in ear thickness (mm) of experimental ear compared to that of the control ear. Individual animal sera are collected for measurement of antibody on day 28, 42, 63 and 77. Sera from individual animals and group pools are evaluated for specific anti-mH antibody, for total antibody, IgG1, IgG2a and IgG3 antibody isotype and cross clade titer at selected time points as indicated. […]"}, "[2]": {"system": "E Clade", "assay": "ELISA cross clade recognition by sera of immunized mice, E Clade", "format": "in vivo", "details": "for ELISA test antigen E Clade: day 42 test bleeding, Group Average", "method": "(§1) Mice in groups (5-10 animals per group as designated) are immunized with the LEAPS constructs (25 μg/dose) of SEQ ID NO's:37, 38 and 39, in 0.2 mL emulsified 1:1 with adjuvant (Seppic's ISA-51 or Corixa's microfluidized MPL S/E) on days 0 and 14. Mice are evaluated by Delayed Type of Hypersensitivity (DTH) by inoculation on day 26 with 20 μl of a solution of saline or mH (SEQ ID NO:6) (25 μg in saline) in the left or right ear respectively. The DTH response is determined by measurement of the ear thickness 48 hours later and expressed as increase in ear thickness (mm) of experimental ear compared to that of the control ear. Individual animal sera are collected for measurement of antibody on day 28, 42, 63 and 77. Sera from individual animals and group pools are evaluated for specific anti-mH antibody, for total antibody, IgG1, IgG2a and IgG3 antibody isotype and cross clade titer at selected time points as indicated.\nThe mouse sera for the ELISA was used at a dilution of 1:200. Again, clearly, the construct provides higher signals indicative of higher levels of the antibodies that recognized other clades besides the parental one (Clade B) of mH.\nA cross clade analysis for pools of day 42 test bleedings from the same groups as used in Table 3, were obtained and the results are shown in Table 4."}, "[3]": {"system": "Peptide G", "assay": "Specificity analysis for the TCBL carrier, ELISA plates coated with Peptide G", "format": "in vivo, Mice", "details": "for A 490 1:200 dilution on plates coated with Peptide G: Average", "method": "as §1\nA specificity analysis for the TCBL or KLH carrier for pools of day 42 test bleedings from the G-mH, G′-mH and mH/KLH, using either MPL S/E or ISA51 as adjuvant, was carried out (all sera assayed at a dilution of 1:200) and the results are shown in Table 5. […] This observation is especially significant for vaccines used on a repetitive basis, such as, either a vaccine that requires more frequent intervals between boosters for maintenance of cellular reactivity or as a therapeutic vaccine."}, "[4]": {"system": "modified HGP-30", "assay": "Delayed Type Hypersensitivity (DTH) ear thickness response with antisera depletion of CD4 or CD8 cells", "format": "in vivo, Mice", "method": "as §1\nSelect immunoglobulin preparations were obtained from Dr. Stephen Hoffmann, Malaria Program, U.S. Navy. […] This allows one to determine some parts of the nature of various cellular (e.g., T-cell) involvement in the early stage of immune system response with the LEAPS peptide-constructs. It is recognized, however, that this is only a temporary event since new cells are continuously being developed from stem cells and the animals become resistant to the reagents.\nThe animals are pretreated with the antisera as indicated for 5 days before the initial immunization with peptide-construct having SEQ ID NO:37 or SEQ ID NO:39 on […]. No pretreatment is done before the booster immunization on day 14 or DTH on day 26-28. The mice are then inoculated with the test antigen or saline (control) on day 26 in the left and right ears, respectively, and the DTH response is measured on day 28. The difference between the values for the test and saline control ears is calculated for each group of five animals along with the standard error of the mean (sem) and the results are plotted (see FIG. 1). Also shown in FIG. 1 are values for the untreated animals and animals immunized on day 14 only.\nThe DTH (Delayed Type Hypersensitivity) data is statistically significant with a t-test of 0.05 for SEQ ID NO:39 and anti-CD8. The DTH for pretreatment of SEQ ID NO:37 immunized mice with anti-CD4 was just above the cutoff limit for statistical significance due to a weaker DTH response and small group size."}, "[5]": {"system": "D Clade", "assay": "ELISA cross clade recognition by sera of immunized mice, D Clade", "format": "in vivo", "details": "day 42 test bleeding, individual mouse"}, "[6]": {"details": "day 63 test bleeding, sera 1:200, individual mouse"}, "[7]": {"details": "Day 14 Injection Only (immunized with construct on day 14 only), average of group of 5 mice"}, "[8]": {"details": "Treatment Anti CD4, daily for 5 days before immunization, average of group (5 mice)"}, "[9]": {"details": "Treatment Anti CD8, daily for 5 days before immunization, average of group of 5 mice"}, "[10]": {"details": "Treatment None, average of group (5 mice), ISA 51 adjuvant"}, "[11]": {"details": "Treatment Normal rat IgG, daily for 5 days before immunization, average of group (5 mice)"}}, "note": "Values joined by “and” are separate entries in the source; they are usually repeats but may differ in a detail not shown here. Equal values may be shown once.", "data": [{"substance": "DGQ EEK AGV VST GLI GGG ATL YSV HQR IDV KDT KEA LEK IEE EQN KS (DGQEEKAGVVSTGLIGGGYLSGANLNL) [SEQ ID NO: 57, Peptide G′ linked by GGG spacer to modified HGP-30 (mH)]", "values": [{"measurement": "A 490 1:200 dilution on plates coated with modified HGP-30", "setting": "[1]; day 42, first set of groups (animals 4637-4648, 4674-4678), individual animal", "result": "2.178 A 490 and 1.411 A 490 and 2.314 A 490 and 2.555 A 490 and 2.404 A 490 and 2.273 A 490"}, {"measurement": "A 490 1:200 dilution on plates coated with modified HGP-30", "setting": "[1]; day 42, first set of groups, Average", "result": 2.189, "unit": "A 490"}, {"measurement": "A 490 1:200 dilution on plates coated with modified HGP-30", "setting": "[1]; day 42, second set of groups (animals 4662-4673, 4679-4683), individual animal", "result": "1.968 A 490 and 1.422 A 490 and 1.755 A 490 and 2.450 A 490 and 2.403 A 490 and 1.399 A 490"}, {"measurement": "A 490 1:200 dilution on plates coated with modified HGP-30", "setting": "[1]; day 42, second set of groups, Average", "result": 1.899, "unit": "A 490"}, {"measurement": "ELISA test antigen Modified HGP-30", "setting": "[1]; group (A), Group Average", "result": 2.433}, {"measurement": "ELISA test antigen Modified HGP-30", "setting": "[1]; group (A), individual mouse", "result": "2.307 and 1.589 and 2.432 and 2.867 and 2.627 and 2.780"}, {"measurement": "ELISA test antigen Modified HGP-30", "setting": "[1]; group (B), Group Average", "result": 2.672}, {"measurement": "ELISA test antigen Modified HGP-30", "setting": "[1]; group (B), individual mouse", "result": "2.330 and 2.213 and 2.534 and 3.358 and 3.030 and 2.571"}, {"measurement": "ELISA signal on modified HGP-30", "setting": "[1]; [6]", "result": "2.737 and 2.471 and 2.569 and 2.093 and 2.512 and 3.115 and 3.153 and 2.922 and 2.236 and 2.534"}, {"measurement": "ELISA test antigen E Clade", "setting": "[2]; group (A)", "result": 0.035}, {"measurement": "ELISA test antigen E Clade", "setting": "[2]; group (B)", "result": 0.094}, {"measurement": "ELISA signal on E Clade", "setting": "[2]; [6]", "result": "0.933 and 0.030 and 0.113 and 0.041 and 0.000 (2×) and 0.029 and 0.068 and 0.006 and 0.271"}, {"measurement": "A 490 1:200 dilution on plates coated with Peptide G", "setting": "[3]; day 42, first set of groups", "result": 0.080, "unit": "A 490"}, {"measurement": "A 490 1:200 dilution on plates coated with Peptide G", "setting": "[3]; day 42, second set of groups", "result": 0.062, "unit": "A 490"}, {"measurement": "Reactivity toward the delivery vehicle TCBL", "setting": "[3]; day 42 sera at 1:200, Table 5, in words", "result": "minimal reactivity"}, {"measurement": "Left Ear thickness, inoculated day 26 with HGP-30, measured after 48 hours", "setting": "[4]; [7]", "result": 0.234, "unit": "mm"}, {"measurement": "Right Ear thickness, inoculated day 26 with saline, measured after 48 hours", "setting": "[4]; [7]", "result": 0.222, "unit": "mm"}, {"measurement": "DTH % increase (L-R)/R", "setting": "[4]; Day 14 Injection Only, average of group of 5 mice", "result": 5.10, "unit": "%"}, {"measurement": "Left Ear thickness, inoculated day 26 with HGP-30, measured after 48 hours", "setting": "[4]; [8]", "result": 0.252, "unit": "mm"}, {"measurement": "Right Ear thickness, inoculated day 26 with saline, measured after 48 hours", "setting": "[4]; [8]", "result": 0.237, "unit": "mm"}, {"measurement": "DTH % increase (L-R)/R", "setting": "[4]; Treatment Anti CD4, average of group (5 mice)", "result": 6.10, "unit": "%"}, {"measurement": "Left Ear thickness, inoculated day 26 with HGP-30, measured after 48 hours", "setting": "[4]; [9]", "result": 0.290, "unit": "mm"}, {"measurement": "Right Ear thickness, inoculated day 26 with saline, measured after 48 hours", "setting": "[4]; [9]", "result": 0.232, "unit": "mm"}, {"measurement": "DTH % increase (L-R)/R", "setting": "[4]; Treatment Anti CD8, average of group of 5 mice", "result": 25.00, "unit": "%"}, {"measurement": "DTH % increase (L-R)/R", "setting": "[4]; Treatment None, average of group (5 mice)", "result": 22.10, "unit": "%"}, {"measurement": "Left Ear thickness, inoculated day 26 with HGP-30, measured after 48 hours", "setting": "[4]; [10]", "result": 0.274, "unit": "mm"}, {"measurement": "Right Ear thickness, inoculated day 26 with saline, measured after 48 hours", "setting": "[4]; [10]", "result": 0.224, "unit": "mm"}, {"measurement": "Left Ear thickness, inoculated day 26 with HGP-30, measured after 48 hours", "setting": "[4]; [11]", "result": 0.278, "unit": "mm"}, {"measurement": "Right Ear thickness, inoculated day 26 with saline, measured after 48 hours", "setting": "[4]; [11]", "result": 0.232, "unit": "mm"}, {"measurement": "DTH % increase (L-R)/R", "setting": "[4]; Treatment Normal rat IgG, average of group (5 mice)", "result": 19.90, "unit": "%"}, {"measurement": "Type of cells required for a DTH response", "setting": "[4]; cell specific antisera as depletion reagent for the primary immunization (FIG. 1)", "result": "requires the presence and presumably activation of CD4+ but not CD8+ cells"}, {"measurement": "ELISA test antigen D Clade", "setting": "[5]; group (A)", "result": "0.052 and 0.000 (2×) and 0.010 and 0.003 and 0.114"}, {"measurement": "ELISA test antigen D Clade", "setting": "[5]; group (B)", "result": "0.087 and 0.095 and 0.185 and 1.799 and 1.727 and 0.637"}]}]}
